Source: patent publication US12686657B2, “Anti-inflammatory carboxamide derivatives” (BIOMEDCODE HELLAS SA, priority 2021, dated 2026)
Read-outs that look alike come from different tables or passages of the source.

Assays:
Format in all cases: cell-based, mice
[1] = test system: hTNF-activated wt SFs; experiment: CCL5 and CCL20 ELISA on hTNF-activated wild type synovial fibroblasts; details: for activity at 10 µM / activity at 50 µM / IC50 / activity at 25 µM: Mus musculus, Fibroblast; for activity at 10 µM / activity at 50 µM / activity at 25 µM / CCL5 WT, percentage of level in untreated cells / CCL20 WT, percentage of level in untreated cells: 48 h; for activity at 50 µM: compound 50 μM; for IC50: 10 ng/ml hTNF stimulation
Text: (§1) Primary SFs were derived from a) human TNF transgenic (hTNFTg) mice (Keffer et al., 1991) as well as from b) CBA/C57BL6 wild type mice.
By testing the compounds in a) and b) we accessed their effect on the activated SFs phenotype caused by both the endogenous hTNF upregulation and the exogenous hTNF administration. In this way it was confirm the ability of the compounds of the invention to act in the TNF pathway directly downstream of TNF.
(§2) SFs were isolated as previously described by Armaka et al., 2009, from the ankle joints of hTNFtg or CBA/C57BL6 wild type (wt) littermates. Briefly, ankle joints were digested with Collagenase IV (Sigma Aldrich, C5138) for 45 minutes at a 37° C. shaking waterbath and after 5 days in culture at 37° C. and 5% CO2, a depletion of CD45+ lineage cells was performed using a Biotin anti-mouse CD45 Antibody (Biolegend, 103104) and Dynabeads™ Biotin Binder (ThermoFisher 11047), according to the manufacturer's protocol. After 10 days in culture, SFs were seeded overnight (O/N) at a concentration of 2×10^4 cells/well in a 96 well plate in 1×DMEM, supplemented with 100 U/ml Penicillin Streptomycin (P/S) and 10% Fetal Bovine Serum (FBS). The next day the cells were synchronized by starvation that included their O/N plating in low serum medium (0.5% FBS). Following the O/N starvation, the hTNFg and the WT SFs were treated with different concentrations of the experimental compounds. The SFs were at the same time activated with 10 ng/ml hTNF (Peprotech, 300-01A). 48 h following the treatment the cell culture supernatants were collected and analyzed by ELISA (R&S Systems, Duoset, DY478 and DY760) according to the manufacturer's protocol, for the detection of CCL5/Rantes and CCL20/Mip3, two known inflammatory chemokines. The IC50 values were determined as the concentration of the compounds required to reduce the levels of secreted CCL5 and CCL20 by 50%.
In order to determine the efficiency of the compounds of the invention, the same protocol was repeated with some minor modifications. Mainly, the concentration of hTNF was 10-fold reduced, i.e., adjusted to 1 ng/ml, and the SFs were seeded overnight at a concentration of 10^4 cells/well.
(§3) Table 7 summarizes the reduction of CCL5 and CCL20 levels achieved with the test compounds of the invention. Data are presented as percentages of the chemokine levels detected in treated cells compared to 100% levels of the chemokines detected in the untreated cells.
(§4) Table 8 summarizes the values of IC50 and toxicity for the test compounds of the invention. Dose response curves regarding the WT SFs were produced with 10 ng/ml hTNF stimulation for all compounds, with the exception of the compounds E and F, where WT cells were induced using hTNF at 1 ng/ml: […]

[2] = test system: hTNFtg SFs; experiment: CCL5 and CCL20 ELISA on hTNFtg synovial fibroblasts; details: Mus musculus, Fibroblast; for activity at 10 µM: compound 10 μM; for activity at 10 µM / activity at 50 µM / activity at 25 µM: 48 h; for activity at 50 µM: compound 50 μM; for activity at 25 µM: compound 25 μM
Protocol: as §1
hTNFtg mice overexpress human TNF, resulting in the spontaneous development of arthritis.
as §2, §3, §4

[3] = test system: SFs and PMCs; experiment: Compound cytotoxicity, Crystal Violet assay
Protocol: The toxicity of the test compounds was assessed at several concentrations using the Crystal Violet assay on both SFs and PMCs. Adherent viable cells were Methanol fixed and stained with Crystal Violet. Optical density was quantified at […], as described in Feoktistova et al., 2016.

[4] = 10 ng/mL hTNF, compound 10 μM, read-out: CCL5 WT, percentage of level in untreated cells
[5] = 10 ng/mL hTNF, compound 10 μM, read-out: CCL20 WT, percentage of level in untreated cells
[6] = read-out: CCL5 hTNFtg, percentage of level in untreated cells
[7] = read-out: CCL20 hTNFtg, percentage of level in untreated cells
[8] = read-out: IC50 (μM) CCL5 hTNFtg
[9] = read-out: IC50 (μM) CCL20 hTNFtg

SMILES | activity at 10 µM [1, 4] [%] | activity at 10 µM [1, 5] [%] | IC50 ([1]; read-out: IC50 (μM) CCL5 WT) [µM] | IC50 ([1]; read-out: IC50 (μM) CCL20 WT) [µM] | activity at 10 µM [2, 6] [%] | activity at 10 µM [2, 7] [%] | IC50 [2, 8] [µM] | IC50 [2, 9] [µM] | Cell Toxicity [3] [µM] | activity at 25 µM [2, 6] [%] | activity at 25 µM [2, 7] [%] | other results
COc1cc(N)c(Cl)cc1C(=O)NCC1(N2CCSCC2)CCCCCC1 [Compound 44, 4-amino-5-chloro-2-methoxy-N-((1-thiomorpholinocycloheptyl)methyl)benzamide] | 30 | 75 | 3.7 | ~65 | 69 | 45 | 12.6 | ~15 | >100 |  |  | activity at 50 µM ([1]; 10 ng/mL hTNF, read-out: CCL5 WT, percentage of level in untreated cells): 2%; activity at 50 µM ([1]; 10 ng/mL hTNF, read-out: CCL20 WT, percentage of level in untreated cells): 46%; activity at 50 µM [2, 6]: 26%; activity at 50 µM [2, 7]: 27%
COc1cc(N)c(Cl)cc1C(=O)NCC1(c2ccc(F)cc2)CCCCCC1 [Compound 57, 4-amino-5-chloro-N-((1-(4-fluorophenyl)cycloheptyl)methyl)-2-methoxybenzamide] | 49 | 13 | 18 | 3.5 | 40 | 27 | 4 | 2.4 | >25 | 40 | 25 | activity at 25 µM ([1]; 10 ng/mL hTNF, compound 25 μM, read-out: CCL5 WT, percentage of level in untreated cells): 14%; activity at 25 µM ([1]; 10 ng/mL hTNF, compound 25 μM, read-out: CCL20 WT, percentage of level in untreated cells): 6%
COc1cc(N)c(Cl)cc1C(=O)NCC1(c2ccc(F)cc2Cl)CCCCCC1 [Compound 58, 4-amino-5-chloro-N-((1-(2-chloro-4-fluorophenyl)cycloheptyl)methyl)-2-methoxybenzamide] |  | 48.5 | 2.96 | 2.44 | 64 | 32.5 | 0.95 | 0.74 | >50 | 53.5 | 22.5 | CCL5 WT, percentage of level in untreated cells ([1]; 1 ng/mL hTNF, compound 10 μM): 8%; CCL5 WT, percentage of level in untreated cells ([1]; 1 ng/mL hTNF, compound 25 μM): 9%; CCL20 WT, percentage of level in untreated cells ([1]; 1 ng/mL hTNF, compound 25 μM): 14%; CCL5 WT, percentage of level in untreated cells ([1]; 10 ng/mL hTNF, compound 10 μM): 0%; CCL5 WT, percentage of level in untreated cells ([1]; 10 ng/mL hTNF, compound 25 μM): 0%; CCL20 WT, percentage of level in untreated cells ([1]; 10 ng/mL hTNF, compound 25 μM): 0%; activity at 10 µM ([1]; 1 ng/mL hTNF, compound 10 μM, read-out: CCL20 WT, percentage of level in untreated cells): 15%
